Experimental data published in PubChem BioAssay (NCI).
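Grown in 96-well plates, cells were treated for 48 hours with each compound at five concentrations. Insufficient inhibition: endpoint recorded as highest concentration tested. TGI is the concentration that stops growth completely.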

What was measured:
Test in all cases: NCI-60 cell line screen, 48 h
[1] = test system: 786-0 renal
[2] = test system: A549 NSCLC
[3] = test system: ACHN renal
[4] = test system: BT-549 breast
[5] = test system: CAKI-1 renal
[6] = test system: CCRF-CEM leukemia
[7] = test system: COLO 205 colon
[8] = test system: DU-145 prostate
[9] = test system: EKVX NSCLC
[10] = test system: HCT-116 colon
[11] = test system: HCT-15 colon
[12] = test system: HL-60(TB) leukemia
[13] = test system: HOP-62 NSCLC
[14] = test system: HS 578T breast
[15] = test system: HT29 colon
[16] = test system: IGROV1 ovarian
[17] = test system: K-562 leukemia
[18] = test system: KM12 colon
[19] = test system: LOX IMVI melanoma
[20] = test system: M14 melanoma
[21] = test system: MCF7 breast
[22] = test system: MDA-MB-231 breast
[23] = test system: MDA-MB-435
[24] = test system: MDA-N
[25] = test system: MOLT-4 leukemia
[26] = test system: NCI-H226 lung
[27] = test system: NCI-H23 lung
[28] = test system: NCI-H460 lung
[29] = test system: NCI-H522 lung
[30] = test system: NCI/ADR-RES ovarian
[31] = test system: OVCAR-3 ovarian
[32] = test system: OVCAR-4 ovarian
[33] = test system: OVCAR-5 ovarian
[34] = test system: OVCAR-8 ovarian
[35] = test system: PC-3 prostate
[36] = test system: RPMI-8226 leukemia
[37] = test system: RXF 393 renal
[38] = test system: SF-268 CNS
[39] = test system: SF-295 CNS
[40] = test system: SF-539 CNS
[41] = test system: SK-MEL-2 melanoma
[42] = test system: SK-MEL-28 melanoma
[43] = test system: SK-MEL-5 melanoma
[44] = test system: SK-OV-3 ovarian
[45] = test system: SN12C renal
[46] = test system: SNB-19 CNS
[47] = test system: SNB-75 CNS
[48] = test system: SW-620 colon
[49] = test system: T-47D breast
[50] = test system: TK-10 renal
[51] = test system: U251 CNS
[52] = test system: UACC-257 melanoma
[53] = test system: UACC-62 melanoma
[54] = test system: A498 renal
[55] = test system: HCC-2998 colon
[56] = test system: HOP-92 NSCLC
[57] = test system: SR leukemia
[58] = test system: UO-31 renal
[59] = test system: MALME-3M melanoma

Measured: TGI

CCOP(=O)(/C=C\n1ccc(N)nc1=O)OCC
> 100 µM: [1] | [2] | [3] | [4] | [5] | [6] | [7] | [8] | [9] | [10] | [11] | [12] | [13] | [14] | [15] | [16] | [17] | [18] | [19] | [20] | [21] | [22] | [23] | [24] | [25] | [26] | [27] | [28] | [29] | [30] | [31] | [32] | [33] | [34] | [35] | [36] | [37] | [38] | [39] | [40] | [41] | [42] | [43] | [44] | [45] | [46] | [47] | [48] | [49] | [50] | [51] | [52] | [53]

Nc1nn2c(=O)c3ccccc3nc2s1
91.1 µM: [26]
44.7 µM: [19] | [57]
77.9 µM: [4]
50.3 µM: [29]
53.1 µM: [25]
46.9 µM: [6]
38.5 µM: [48]
88.7 µM: [17]
> 100 µM: [1] | [54] | [2] | [3] | [5] | [7] | [8] | [9] | [55] | [10] | [11] | [13] | [56] | [14] | [15] | [16] | [18] | [21] | [23] | [24] | [27] | [28] | [30] | [31] | [32] | [33] | [34] | [35] | [36] | [37] | [38] | [39] | [40] | [41] | [42] | [43] | [44] | [45] | [46] | [47] | [49] | [50] | [51] | [52] | [53] | [58]
93.8 µM: [20]

CC1(C)[C@H]2CC[C@@]13C(=O)N1C(=O)O[C@@H]([C@H]1Cl)C(Cl)(COCc1ccccc1)C(=O)OCCO[C@H]3C2 (stereo partly specified)
> 100 µM: [1] | [54] | [2] | [3] | [4] | [5] | [6] | [9] | [55] | [10] | [11] | [12] | [13] | [56] | [14] | [15] | [16] | [17] | [18] | [19] | [20] | [59] | [21] | [23] | [24] | [27] | [28] | [29] | [30] | [31] | [32] | [33] | [34] | [35] | [36] | [38] | [39] | [40] | [41] | [42] | [43] | [44] | [46] | [47] | [57] | [48] | [49] | [51] | [52] | [53] | [58]
76.9 µM: [25]
36.6 µM: [7]

C[C@H]1SC(c2ccc(Cl)cc2Cl)N(NC(=O)c2ccncc2)C1=O (stereo partly specified)
69.9 µM: [20]
29.7 µM: [35]
> 100 µM: [4] | [5] | [6] | [7] | [8] | [11] | [12] | [56] | [14] | [15] | [16] | [17] | [18] | [59] | [21] | [22] | [27] | [28] | [30] | [31] | [33] | [34] | [36] | [39] | [42] | [44] | [45] | [46] | [47] | [57] | [49] | [51] | [53]
60.4 µM: [10]
37 µM: [43]
57.5 µM: [24]
61.2 µM: [37]
60.5 µM: [29]
96.1 µM: [58]
75.3 µM: [23]
90.7 µM: [3]
76.6 µM: [26]
78.4 µM: [54]
94.3 µM: [13]
72.3 µM: [38]
58.3 µM: [41]
98.8 µM: [9]
